Laboratory results published in PMC7822874, “Chemoprotective antimalarials identified through quantitative high-throughput screening of Plasmodium blood and liver stage parasites” (Scientific Reports, 2021).
In brackets after ≈: the same amount, converted by molar mass. Like-named read-outs stand apart in the source and are kept apart here.

How the values were obtained:
[1] = system: P. falciparum Dd2 Cytb F123L; experiment: SYBR Green ABS proliferation assay, NCGC00473217 selected clone G08; type: cell-based, Plasmodium falciparum
Method in brief: (§1)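 Asexual blood-stage proliferation of cytochrome b-mutant Dd2 clones after 72 h compound exposure at 37 °C in low-oxygen gas, quantified as control-normalized SYBR Green-I fluorescence; differences tested by two-sided t-test.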

[2] = system: P. falciparum Dd2 (clone B2) asexual blood stage parasites; experiment: P. falciparum Dd2 asexual blood stage SYBR Green-I 72 h proliferation assay (qHTS); type: cell-based, Plasmodium falciparum
[3] = system: P. falciparum Dd2 cytochrome b mutant lines; experiment: Drug response of drug-selected cytochrome b mutant lines versus parental Dd2-B2 (panel); type: cell-based, Plasmodium falciparum; settings: all cytochrome b mutant lines vs Dd2-B2
Protocol: As resistance selection studies implicated the parasite cytochrome bc1 complex in mediating reduced parasite susceptibility to both NCGC00473217 and NCGC00374598, we leveraged these drug-selected parasites to test for altered drug response to a panel of antimalarial compounds.
The P. falciparum parasite Dd2 line was cultured in vitro using standard conditions. […] Tissue culture flasks and assay plates were incubated at 37 °C under a gas mixture of 5% CO2, 5% O2 and 90% N2. […] Significant differences were assessed using two-sided Student’s t-tests. All HTS assays were stopped and read at 72 h. Percent response values represent relative growth as judged by SYBR Green-I fluorescence intensity values normalized to controls.

[4] = system: P. falciparum Dd2 Cytb V259L; experiment: SYBR Green ABS proliferation assay, NCGC00473217 selected clone F06; type: cell-based, Plasmodium falciparum
Method in brief: as §1

[5] = system: P. falciparum Dd2 Cytb A122D; experiment: SYBR Green ABS proliferation assay, NCGC00473217 selected clone F12; type: cell-based, Plasmodium falciparum
Method in brief: as §1

[6] = system: P. falciparum Dd2 Cytb G131S; experiment: SYBR Green ABS proliferation assay, NCGC00374598 selected clone C11; type: cell-based, Plasmodium falciparum
Method in brief: as §1

[7] = Rat liver microsomal stability (RLMS); settings: rat liver microsomes; for half-life: rat
Protocol: (§2) Pharmacokinetic modeling experiments, parallel artificial membrane permeability assay (PAMPA), solubility, and rat liver microsome stability assessment were performed on all synthetic compounds, as previously described[73]–[75].

Aqueous solubility = type: physicochemical; settings: aqueous media
Protocol: as §2

[8] = Parallel artificial membrane permeability assay (PAMPA); type: in vitro ADME; settings: for PAMPA pH7.4: pH 7.4
Protocol: as §2

[9] = Plasmodium falciparum, DD2, NCGC00473217 selected clone, read-out: AC50 Log[M] ± SD, Cytb F123L (converted)
[10] = Plasmodium falciparum, DD2, Suppl Table 6, read-out: AC50 (mM), Dd2 Cytb F123L
[11] = Plasmodium falciparum, DD2, 72 h, SYBR Green 72 h, WT Dd2-B2, read-out: AC50 Log[M] ± SD, Dd2-B2 (parental line) (converted)
[12] = Plasmodium falciparum, DD2, Suppl Table 6, read-out: AC50 (mM), WT (Dd2-B2)
[13] = Plasmodium falciparum, DD2, NCGC00473217 selected clone, read-out: AC50 Log[M] ± SD, Cytb V259L (converted)
[14] = Plasmodium falciparum, DD2, Suppl Table 6, read-out: AC50 (mM), Dd2 Cytb V259L
[15] = Plasmodium falciparum, DD2, NCGC00473217 selected clone, read-out: AC50 Log[M] ± SD, Cytb A122D (converted)
[16] = Plasmodium falciparum, DD2, Suppl Table 6, read-out: AC50 (mM), Dd2 Cytb A122D
[17] = Plasmodium falciparum, DD2, NCGC00374598 selected clone, read-out: AC50 Log[M] ± SD, Cytb G131S (converted)
[18] = Plasmodium falciparum, DD2, Suppl Table 6, read-out: AC50 (mM), Dd2 Cytb G131S
[19] = Plasmodium falciparum, DD2, NCGC00473217 selected clone G08, highest concentration 29 µM, read-out: AC50 [μM], Cytb F123L (converted)
[20] = Plasmodium falciparum, DD2, 72 h, SYBR Green 72 h, approximate value in μM, read-out: AC50 [μM], Dd2-B2 (parental line) (converted)
[21] = Plasmodium falciparum, DD2, NCGC00473217 selected clone F06, read-out: AC50 [μM], Cytb V259L (converted)
[22] = Plasmodium falciparum, DD2, NCGC00473217 selected clone F12, read-out: AC50 [μM], Cytb A122D (converted)
[23] = Plasmodium falciparum, DD2, NCGC00374598 selected clone C11, read-out: AC50 [μM], Cytb G131S (converted)

SMILES	AC50 [2, 11]	change in susceptibility across drug-selected lines [3]	AC50 [4, 13]	AC50 [5, 15]	AC50 [6, 17]	AC50 [1, 19]	AC50 [2, 20]	half-life [7]	solubility (Aqueous solubility)	AC50 [4, 21]	AC50 [5, 22]	PAMPA pH7.4 [8]	AC50 [6, 23]	other results
OC(c1cc(C(F)(F)F)nc2c(C(F)(F)F)cccc12)C1CCCCN1 (centres unmarked) [Mefloquine, mefloquine, reference compound]	7.76e-08 M	no observed change in susceptibility	1.23e-07 M	1.29e-07 M	8.32e-08 M									AC50 [1, 9]: 9.77e-08 M; AC50 [1, 10]: 9.79e-08 M; AC50 [2, 12]: 7.78e-08 M; AC50 [4, 14]: 1.23e-07 M; AC50 [5, 16]: 1.28e-07 M; AC50 [6, 18]: 8.41e-08 M
CCN(CC)Cc1cc(Nc2ccnc3cc(Cl)ccc23)ccc1O [Amodiaquine, amodiaquine, reference compound]	4.68e-08 M	no observed change in susceptibility	7.24e-08 M	6.61e-08 M	4.9e-08 M									AC50 [1, 9]: 5.5e-08 M; AC50 [1, 10]: 5.51e-08 M; AC50 [2, 12]: 4.73e-08 M; AC50 [4, 14]: 7.21e-08 M; AC50 [5, 16]: 6.68e-08 M; AC50 [6, 18]: 4.91e-08 M
CCCN1C(CC(C)C)=NS(=O)(=O)c2cc(NC(=O)c3ccsc3)ccc21 [NCGC00521157]	2e-06 M				2.09e-06 M	> 2.9e-05 M	2e-06 M	3.7 min	< 1 µg/mL	> 2.9e-05 M	> 2.9e-05 M	178 1e-6 cm/s	2.08e-06 M	
CCCN1C(CC2CCCCC2)=NS(=O)(=O)c2cc(NC(=O)c3ccc(F)cc3)ccc21 [NCGC00532335]	8.91e-07 M			3.31e-06 M	8.51e-07 M	> 2.9e-05 M	8.94e-07 M	> 30 min	< 1 µg/mL	> 2.9e-05 M	3.31e-06 M	<1 1e-6 cm/s	8.61e-07 M	
CO[C@H]1O[C@@H]2O[C@@]3(C)CC[C@H]4[C@H](C)CC[C@@H]([C@H]1C)[C@@]24OO3 [Artemether, artemether, reference compound]	5.13e-08 M	no observed change in susceptibility	6.61e-08 M	6.61e-08 M	3.24e-08 M									AC50 [1, 9]: 3.63e-08 M; AC50 [1, 10]: 3.61e-08 M; AC50 [2, 12]: 5.11e-08 M; AC50 [4, 14]: 6.68e-08 M; AC50 [5, 16]: 6.68e-08 M; AC50 [6, 18]: 3.22e-08 M
CCCN1C(CC(C)C)=NS(=O)(=O)c2cc(NC(=O)Nc3nccs3)ccc21 [NCGC00537523]	2.14e-06 M		5.25e-06 M	9.33e-06 M	2.69e-06 M	9.56e-06 M	2.16e-06 M	7.8 min	1.2 µg/mL (≈ 2.85 µM)	5.23e-06 M	9.29e-06 M	113 1e-6 cm/s	2.67e-06 M	AC50 [1, 9]: 9.55e-06 M
CN1C(c2ccccc2)=NS(=O)(=O)c2cc(NC(=O)c3ccc(F)cc3)ccc21 [NCGC00651719]						> 2.9e-05 M	> 2.9e-05 M	> 30 min	< 1 µg/mL	> 2.9e-05 M	> 2.9e-05 M	3.25 1e-6 cm/s	> 2.9e-05 M	
CCCN1C(CC2CCCCC2)=NS(=O)(=O)c2cc(NC(=O)c3cccs3)ccc21 [NCGC00532404]	3.55e-07 M		1.51e-06 M	1.51e-06 M	9.55e-07 M	> 2.9e-05 M	3.56e-07 M	3.4 min	< 1 µg/mL	1.5e-06 M	1.53e-06 M		9.66e-07 M	Papp ([8]; PAMPA): < 500 ×10⁻⁶ cm/s
CC(C)CC1=NS(=O)(=O)c2cc(NC(=O)c3ccc(F)cc3)ccc2N1C [NCGC00651713]						> 2.9e-05 M	> 2.9e-05 M	> 30 min	< 1 µg/mL	> 2.9e-05 M	> 2.9e-05 M	<1 1e-6 cm/s	> 2.9e-05 M	
CC(C)CC1=NS(=O)(=O)c2cc(NC(=O)c3ccc(F)s3)ccc2N1C [NCGC00651708]	1.66e-06 M					> 2.9e-05 M	1.68e-06 M	> 30 min	< 1 µg/mL	> 2.9e-05 M	> 2.9e-05 M	3.07 1e-6 cm/s	> 2.9e-05 M	RLMS T1/2 [7]: much better stability
CC(C)CC1=NS(=O)(=O)c2cc(NC(=O)c3cccs3)ccc2N1C [NCGC00521057]	1.86e-06 M				2.24e-07 M	> 2.9e-05 M	1.85e-06 M	> 30 min	1.6 µg/mL (≈ 4.24 µM)	> 2.9e-05 M	> 2.9e-05 M	130 1e-6 cm/s	2.25e-07 M	PAMPA permeability [8]: low permeability
CCCN1C(CC(C)C)=NS(=O)(=O)c2cc(NC(=O)c3sccc3Cl)ccc21 [NCGC00531529]	2.24e-06 M		3.72e-06 M	6.03e-07 M	5.89e-07 M	> 2.9e-05 M	2.25e-06 M	2.8 min	< 1 µg/mL	3.72e-06 M	6.03e-07 M	678 1e-6 cm/s	5.86e-07 M	
COc1cc2[nH]c(C)c(-c3ccc(Oc4ccc(OC(F)(F)F)cc4)cc3)c(=O)c2cc1Cl [ELQ-300, reference compound]		no observed change in susceptibility												AC50 Log[M] ± SD, Cytb F123L ([1]; NCGC00473217 selected clone): -7.68 Log[M]; AC50 ([1]; Suppl Table 6, read-out: AC50 (mM), Dd2 Cytb F123L): 2.11e-08 M; AC50 Log[M] ± SD, Dd2-B2 (parental line) ([2]; SYBR Green 72 h, WT Dd2-B2): -7.13 Log[M]; AC50 ([2]; Suppl Table 6, read-out: AC50 (mM), WT (Dd2-B2)): 7.5e-08 M; AC50 Log[M] ± SD, Cytb V259L ([4]; NCGC00473217 selected clone): -7.06 Log[M]; AC50 ([4]; Suppl Table 6, read-out: AC50 (mM), Dd2 Cytb V259L): 8.73e-08 M; AC50 Log[M] ± SD, Cytb A122D ([5]; NCGC00473217 selected clone): -7.39 Log[M]; AC50 ([5]; Suppl Table 6, read-out: AC50 (mM), Dd2 Cytb A122D): 4.06e-08 M; AC50 Log[M] ± SD, Cytb G131S ([6]; NCGC00374598 selected clone): -7.16 Log[M]; AC50 ([6]; Suppl Table 6, read-out: AC50 (mM), Dd2 Cytb G131S): 6.93e-08 M
CCN(CC)CCCC(C)Nc1ccnc2cc(Cl)ccc12 (centres unmarked) [chloroquine]		no observed change in susceptibility												
